In article PMC10987541, “Characterization of a putative orexin receptor in Ciona intestinalis sheds light on the evolution of the orexin/hypocretin system in chordates” (Scientific Reports, 2024):
Each block holds one compound with its values, some of them ahead of it. No end group written: not given here.

Experiments:
[1] = tested on: hOX1; assay: Binding of TAMRA-orexin-A (fluorescence microscopy) in hOX1-eGFP-expressing cells; set-up: species or system human; conditions: 30 nM
Protocol: (§1) We have previously observed that the N-terminus of orexin-A can tolerate additions without apparent loss of activity on orexin receptors (Kukkonen, unpublished) and it has been reported that fluorescently labelled orexin-A can be used as probe for hOX1/2[56].
(§2) The cells were seeded on polyethyleneimine-coated 25 mm circular glass coverslips (Menzel-Gläser, Braunschweig, Germany). Twenty-four hours after seeding, cells were treated with doxycycline (100 ng/mL) and incubated for another 24 h. Then, the coverslip was washed once with HBM, before mounting in the microfluorometric experiment chamber. The imaging system, composed of the Sutter Lambda DG-4 xenon light source/filter shifter (Sutter Instrument Company, Novato, CA, USA), Nikon TE2000 epifluorescence microscope (Nikon, Tokyo, Japan), Nikon Apo TIRF 60×/1.49 oil immersion objective and Andor iXon 885 electron-multiplying charge-coupled device camera (Oxford Instruments, Abingdon, Oxfordshire, UK), was under the control of the Nikon NIS Elements AR software. Images were alternately acquired at 480/30 nm excitation/510 nm dichroic mirror/535/40 nm emission for eGFP fluorescence and at 540/25 nm excitation/565 nm dichroic mirror/605/55 nm emission for TAMRA fluorescence. […]

[2] = tested on: wild-type Flp-In T-REx 293 cells; assay: Binding of TAMRA-orexin-A (fluorescence microscopy) in wild-type Flp-In T-REx 293 cells; set-up: species or system human; conditions: 30 nM; 10-minute incubation
Protocol: as §1, §2

[3] = biological target: T1, CiOX (Ciona intestinalis, UniProt F6YII5); assay: Binding of TAMRA-orexin-A (fluorescence microscopy) in CiOX-eGFP-expressing cells; conditions: 30 nM
T1 sequence (F6YII5 1-372): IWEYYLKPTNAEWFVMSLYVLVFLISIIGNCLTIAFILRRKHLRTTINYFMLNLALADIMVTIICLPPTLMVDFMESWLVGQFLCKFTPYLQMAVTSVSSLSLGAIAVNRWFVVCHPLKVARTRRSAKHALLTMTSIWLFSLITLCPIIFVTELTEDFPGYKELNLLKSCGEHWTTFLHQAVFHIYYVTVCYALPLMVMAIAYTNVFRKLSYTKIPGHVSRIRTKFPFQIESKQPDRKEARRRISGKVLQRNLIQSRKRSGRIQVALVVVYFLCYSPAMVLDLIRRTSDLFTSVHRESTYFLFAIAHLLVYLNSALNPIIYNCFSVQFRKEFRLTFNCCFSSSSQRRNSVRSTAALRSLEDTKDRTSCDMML
Protocol: as §1
The cells were seeded on polyethyleneimine-coated 25 mm circular glass coverslips (Menzel-Gläser, Braunschweig, Germany). Twenty-four hours after seeding, cells were treated with doxycycline (100 ng/mL) and incubated for another 24 h. Then, the coverslip was washed once with HBM, before mounting in the microfluorometric experiment chamber. The imaging system, composed of the Sutter Lambda DG-4 xenon light source/filter shifter (Sutter Instrument Company, Novato, CA, USA), Nikon TE2000 epifluorescence microscope (Nikon, Tokyo, Japan), Nikon Apo TIRF 60×/1.49 oil immersion objective and Andor iXon 885 electron-multiplying charge-coupled device camera (Oxford Instruments, Abingdon, Oxfordshire, UK), was under the control of the Nikon NIS Elements AR software. Images were alternately acquired at 480/30 nm excitation/510 nm dichroic mirror/535/40 nm emission for eGFP fluorescence and at 540/25 nm excitation/565 nm dichroic mirror/605/55 nm emission for TAMRA fluorescence. A pair of images was acquired once per minute or once per every five minutes depending on the incubation time; i.e., for a longer incubation 5 min was used to avoid potential bleaching. All the additions were made by direct pipetting into the chamber. Experiments were carried out at room temperature. 30 nM TAMRA-orexin-A was used.

[4] = biological target: Ciona intestinalis putative orexin receptor fused to eGFP (Ciona intestinalis)
[5] = tested on: CiOX; assay: Inhibition of human orexin peptide-mediated Ca2+ responses in CiOX-expressing cells; format: cell-based, Ciona intestinalis; conditions: agonist orexin-A and -B 1 µM; inhibitor 1 µM added 30 min before; mean ± S.E.M., N = 3-4
Protocol: Figure 7 The sensitivity of the human endogenous orexin peptide (1 µM) -mediated Ca^2+ responses to inhibitors (1 µM) in CiOX-expressing cells. The responses were normalized to the basal + inhibitor (0%) and the control agonist peptide response (in the absence of inhibitor; 100%) separately for each independent experiment before averaging. Data presented as mean ± S.E.M. N = 3–4. The significances are given in relation to the agonist control.
Intracellular calcium elevation is the apparent response upon orexin receptor activation in many cell types. The calcium elevation assay was conducted as previously described. Cells, 1 × 10^5 per well, were plated on polyethyleneimine (25 μg/mL, 1 h, 37 °C)-coated black, clear-bottom, half-area 96-well plates (Greiner). After 24 h, 100 ng/mL doxycycline was added onto the cells and incubated for another 24 h before loading the cells with FLIPR Calcium 5 Assay Kit (Molecular Devices, Sunnyvale, CA, USA) dissolved in and diluted with HBM and supplemented as described above. Cells were incubated for 1 h with the loading dye, before running the assay in FlexStation 3 fluorescence plate reader (Molecular Devices). Inhibitors were added manually at the midpoint of the probe incubation (30 min). Intracellular Ca^2+ levels were measured as fluorescent changes for 150 s (of which 30 s baseline prior to stimulation) with excitation at 485 nm, emission at 525 nm (recording every 1.3 s) at 37 °C.
The data were normalized in each experiment to the control response and then averaged between experiments by calculation of mean ± S.E.M. The N denotes the number of independent experiments and was always at least 3. Paired two-tailed t-test was used for comparison. Significances were as follows: * P < 0.05, ** P < 0.01, *** P < 0.001.

[6] = tested on: allatotropin receptor of Tribolium castaneum; conditions: cited from earlier work
Excerpt: The data presented in this study strongly support the notion that this orphan C. intestinalis receptor, here called CiOX, is an orexin-like receptor. Despite the sequence divergence, the (proposed) binding cavity of hOX2 and CiOX are highly similar.

[7] = tested on: CiOX; format: cell-based; conditions: 100 µM
Protocol: (§3) The Flp-In T-REx 293 human cell line (Thermofisher Scientific, Waltham, MA, USA), based on HEK293 cells, was cultured at 37 °C in 5% CO2 in an air‐ventilated humidified incubator according to manufacturer’s protocol, in high glucose Dulbecco’s Modified Eagle Medium (Biowest, Nuaillé, France) supplemented with 10% FBS, 1% Glutamax (Gibco), 10 mM HEPES (VWR LifeScience, Radnor, PA, USA), 100 U/mL penicillin G (Sigma Chemical Co., St. Louis, MO, USA), 80 U/mL streptomycin (Sigma), blasticidin (15 µg/mL) (InvivoGen, San Diego, CA, USA). The host cell line was maintained with zeocin (100 µg/mL) (InvitroGen, Carlsbad, CA, USA) and the transfected cell lines with hygromycin B (100 µg/mL) (InvitroGen). The experimental medium, the HEPES-buffered medium, (HBM: 137 mM NaCl, 5 mM KCl, 1.2 mM MgCl2, 0.44 mM KH2PO4, 4.2 mM NaHCO3, 1 mM CaCl2, 10 mM glucose, 20 mM HEPES, adjusted to pH 7.4 with NaOH), was used in all laboratory experiments. For the calcium elevation assay, HBM was supplemented with 1 mM probenecid [4-(dipropylsulfamoyl)benzoic acid] (Sigma) and 0.2% lipid-free bovine serum album.
(§4) Calcium measurements were performed in triplicate or quadruplicate. […] Non-linear curve-fitting were conducted with Prism 5 (GraphPad Software Inc., La Jolla, CA, USA) using the following equation: Y=basal+responsemax-basal/1+10^logEC50-X

[8] = tested on: wild-type Flp-In T-REx 293 cells; assay: Calcium elevation assay in wild-type Flp-In T-REx 293 cells; format: cell-based, human; conditions: for Ca2+ elevation in wild-type cells: wild-type Flp-In T-REx 293 cells, concentration-response, N = 3
Protocol: as §3, §4

[9] = biological target: T1, CiOX; format: cell-based; conditions: CiOX-eGFP-expressing Flp-In T-REx 293 cells
Protocol: as §3, §4

[10] = room temperature, red fluorescence

Compound: TAMRA-orexin-A: 5-/6-carboxytetramethylrhodamine (TAMRA)-labelled human orexin-A, custom synthesis (QPLPDCCRQKTCSCRLYELLHGAGNHAAGILTL; ends and bridges not checked; also: TAMRA label, place not given here; UniProt O43612 34-66, looked up)
Internalization (intracellular red fluorescence) in hOX1 receptor-expressing cells [1]: intracellular red fluorescence suggesting internalization | Binding to the plasma membranes of hOX1-eGFP-expressing cells [1, 10]: bound to the plasma membranes of OX1 cells quickly after the addition | Binding to wild-type Flp-In T-REx 293 cells [2]: did not bind | Internalization (intracellular red fluorescence) in CiOX receptor-expressing cells [3]: did not observe this | Time for which the bound fluorescence intensity remained stable in CiOX-eGFP-expressing cells ([3]; room temperature): at least 30 min | Binding to the plasma membranes of CiOX-eGFP-expressing cells [3, 10]: bound to the plasma membranes of the CiOX receptor-expressing cells

EC50 of the Ca2+ elevation in CiOX-eGFP-expressing Flp-In T-REx 293 cells (CiOX-specific response, wild-type response subtracted) [4]: 225 nM
Compound: human orexin-A (peptide)

Compound: CNC(=O)[C@@H](c1ccccc1)N1CCc2cc(OC)c(OC)cc2[C@@H]1CCc1ccc(C(F)(F)F)cc1 [almorexant, (2R)-2-[(1S)-6,7-dimethoxy-1-[2-[4-(trifluoromethyl)phenyl]ethyl]-3,4-dihydro-1H-isoquinolin-2-yl]-N-methyl-2-phenylacetamide]
Inhibition of Ca2+ responses to CiOX stimulation with orexin-A and -B [5]: nearly fully blocked the response | Inhibition of the allatotropin receptor of Tribolium castaneum [6]: not inhibited

Compound: Nc1ncnc2c1ncn2[C@@H]1O[C@H](COP(=O)(O)OP(=O)(O)OP(=O)(O)O)[C@@H](O)[C@H]1O [ATP]
Ca2+ response to positive control in CiOX-expressing cells [7]: robust Ca^2+ response | Ca2+ response to positive control in wild-type cells ([8]; 100 µM): robust Ca^2+ response

Compound: Cc1nc2ccc(NC(=O)Nc3ccnc4cccnc34)cc2o1 [SB-334867]
Inhibition of Ca2+ responses to CiOX stimulation with orexin-A and -B [5]: much weaker effect

Compound: Cn1c(SCC(=O)N2CCC[C@H]2C(=O)Nc2ccccc2-c2ccccc2)nc2ccccc21 [TCS 1102, (2S)-1-[2-(1-methylbenzimidazol-2-yl)sulfanylacetyl]-N-(2-phenylphenyl)pyrrolidine-2-carboxamide]
Inhibition of Ca2+ responses to CiOX stimulation with orexin-A and -B [5]: nearly fully blocked the response

Compound: COc1ccc(-c2cccc(C(=O)N(C)C)c2)cc1S(=O)(=O)Nc1cccc(NCCNC(=O)c2cccc(C)c2)c1 [Nag 26, N-[2-[3-[[5-[3-(dimethylcarbamoyl)phenyl]-2-methoxyphenyl]sulfonylamino]anilino]ethyl]-3-methylbenzamide]
Ca2+ elevation in CiOX receptor-expressing cells [9]: induced no Ca^2+ elevation | Ca2+ elevation in wild-type cells [8]: induced no Ca^2+ elevation

Compound: orexin-A15–33: The 19-amino acid-long C-terminal fragment of orexin-A (RLYELLHGAGNHAAGILTL; ends and bridges not checked)
EC50 of Ca2+ elevation ([9]; doxycycline 100 ng/mL 24 h, 37 °C, mean ± S.E.M., N = 3): no saturation was reached | Ca2+ elevation in wild-type cells [8]: weakly elevated Ca^2+

Compound: M. sexta allatotropin: Manduca sexta allatotropin from Bachem (GFKNVEMMTARGF)
Ca2+ elevation in CiOX receptor-expressing cells [9]: induced no Ca^2+ elevation | Ca2+ elevation in wild-type cells [8]: induced no Ca^2+ elevation

Compound: [(1R)-1-[(3S,6S,9S,12S,18R,21S,22R)-21-acetamido-18-benzyl-3-[(1R)-1-methoxyethyl]-4,9,10,12,16-pentamethyl-15-methylidene-2,5,8,11,14,17,20-heptaoxo-22-propan-2-yl-1,19-dioxa-4,7,10,13,16-pentazacyclodocos-6-yl]-2-methylpropyl] (2S,3R)-3-hydroxy-4-methyl-2-(propanoylamino)pentanoate [UBO-QIC]
Inhibition of Ca2+ responses to CiOX stimulation with orexin-A and -B [5]: nearly fully inhibited
